Assay results from PubChem BioAssay (NCI).
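Following 48 hours of exposure in 96-well plates, responses at five concentrations were used to interpolate endpoints linearly. TGI marks complete inhibition of growth.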

Columns and labels:
Experiment in all cases: growth of human tumour cells (NCI), 48 h
BT-549 breast = tested on: BT-549 breast
T-47D breast = tested on: T-47D breast
TK-10 renal = tested on: TK-10 renal
HCT-116 colon = tested on: HCT-116 colon
NCI-H23 lung = tested on: NCI-H23 lung
OVCAR-8 ovarian = tested on: OVCAR-8 ovarian
OVCAR-5 ovarian = tested on: OVCAR-5 ovarian
SF-539 CNS = tested on: SF-539 CNS
SK-MEL-28 melanoma = tested on: SK-MEL-28 melanoma
MALME-3M melanoma = tested on: MALME-3M melanoma
LOX IMVI melanoma = tested on: LOX IMVI melanoma
NCI-H226 lung = tested on: NCI-H226 lung
PC-3 prostate = tested on: PC-3 prostate
HL-60(TB) leukemia = tested on: HL-60(TB) leukemia
SF-295 CNS = tested on: SF-295 CNS
HCC-2998 colon = tested on: HCC-2998 colon
MDA-MB-231 breast = tested on: MDA-MB-231 breast
RXF 393 renal = tested on: RXF 393 renal
ACHN renal = tested on: ACHN renal
HS 578T breast = tested on: HS 578T breast
SF-268 CNS = tested on: SF-268 CNS
NCI/ADR-RES ovarian = tested on: NCI/ADR-RES ovarian
EKVX NSCLC = tested on: EKVX NSCLC
OVCAR-3 ovarian = tested on: OVCAR-3 ovarian
NCI-H460 lung = tested on: NCI-H460 lung
CCRF-CEM leukemia = tested on: CCRF-CEM leukemia
NCI-H522 lung = tested on: NCI-H522 lung
MDA-N = tested on: MDA-N
KM12 colon = tested on: KM12 colon
HT29 colon = tested on: HT29 colon
IGROV1 ovarian = tested on: IGROV1 ovarian
SNB-19 CNS = tested on: SNB-19 CNS
UACC-257 melanoma = tested on: UACC-257 melanoma
OVCAR-4 ovarian = tested on: OVCAR-4 ovarian
CAKI-1 renal = tested on: CAKI-1 renal
786-0 renal = tested on: 786-0 renal
M14 melanoma = tested on: M14 melanoma
U251 CNS = tested on: U251 CNS
MCF7 breast = tested on: MCF7 breast
SK-MEL-2 melanoma = tested on: SK-MEL-2 melanoma
COLO 205 colon = tested on: COLO 205 colon
MOLT-4 leukemia = tested on: MOLT-4 leukemia
SN12C renal = tested on: SN12C renal
DU-145 prostate = tested on: DU-145 prostate
A498 renal = tested on: A498 renal
MDA-MB-435 = tested on: MDA-MB-435
UACC-62 melanoma = tested on: UACC-62 melanoma
A549 NSCLC = tested on: A549 NSCLC
SNB-75 CNS = tested on: SNB-75 CNS
K-562 leukemia = tested on: K-562 leukemia
SK-OV-3 ovarian = tested on: SK-OV-3 ovarian
HOP-92 NSCLC = tested on: HOP-92 NSCLC
HOP-62 NSCLC = tested on: HOP-62 NSCLC
HCT-15 colon = tested on: HCT-15 colon
SW-620 colon = tested on: SW-620 colon
RPMI-8226 leukemia = tested on: RPMI-8226 leukemia
SR leukemia = tested on: SR leukemia
SK-MEL-5 melanoma = tested on: SK-MEL-5 melanoma
UO-31 renal = tested on: UO-31 renal

Measured: TGI

O=CN1CCN(C(=O)c2ccc(Cl)cc2Cl)C1=S
85.5 µM: SNB-75 CNS
98.7 µM: HOP-92 NSCLC
46.8 µM: NCI-H522 lung
69.2 µM: HL-60(TB) leukemia
not listed: SR leukemia | SK-MEL-5 melanoma | UO-31 renal
> 100 µM: all other assays above

COC(=O)C1=C(C(=O)OC)C(C(=O)c2ccc(Br)cc2)N2N=C(c3ccc(Cl)cc3)C=CC12 (centres undefined)
not listed: T-47D breast | SF-539 CNS | RXF 393 renal | HT29 colon
> 100 µM: all other assays above

Cc1ccsc1/C=N/Nc1nc2ccccc2s1
72.9 µM: OVCAR-4 ovarian
49.5 µM: HOP-92 NSCLC
41.9 µM: EKVX NSCLC
47.9 µM: SK-MEL-5 melanoma
22.4 µM: HOP-62 NSCLC
35.6 µM: SNB-75 CNS
78.2 µM: HS 578T breast
28.8 µM: CCRF-CEM leukemia
35.3 µM: SK-OV-3 ovarian
36.1 µM: CAKI-1 renal
77.4 µM: NCI/ADR-RES ovarian
23.8 µM: SF-295 CNS
60.7 µM: OVCAR-3 ovarian
28.3 µM: U251 CNS
31.3 µM: MOLT-4 leukemia
26.9 µM: TK-10 renal | SNB-19 CNS
36 µM: MCF7 breast
29 µM: RXF 393 renal
23.5 µM: IGROV1 ovarian
66.7 µM: SF-268 CNS
74.6 µM: KM12 colon
23.2 µM: HCT-116 colon
51.9 µM: NCI-H226 lung
41.3 µM: SN12C renal
30.8 µM: ACHN renal
50.5 µM: A549 NSCLC
19.2 µM: A498 renal
94.9 µM: SW-620 colon
24.7 µM: 786-0 renal
34.9 µM: K-562 leukemia
51.4 µM: UACC-257 melanoma
75.3 µM: SK-MEL-2 melanoma
27.5 µM: MDA-MB-231 breast
72.2 µM: RPMI-8226 leukemia
50.1 µM: PC-3 prostate
not listed: SF-539 CNS | MALME-3M melanoma | HL-60(TB) leukemia | NCI-H460 lung | NCI-H522 lung | SR leukemia
> 100 µM: all other assays above
